Active and inactive are the calls of the source. Some results are limits rather than exact numbers.

A word on the EC50: it is the concentration that produces a half-maximal response. The term AC50 denotes the midpoint of the concentration-response curve, whichever way the signal moves.

Experiment [1] is described as follows: NIH-3T3 fibroblast cytotoxicity, dose response, cytotoxicity control, cell-based, fluorescence, Alamar Blue, secondary assay (AID 2327).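 Also: NIH-3T3 mouse fibroblasts cultured with fluconazole at 8 µg/mL.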 It counts as functional.
Experiment [2] is described as follows: Luminescence Cell-Based Dose Retest to Confirm Inhibitors of Cancer Stem Cells. [Related pubchem assays (depositor defined):AID2717, AID2721]. It counts as functional. The conditions noted are these: Homo sapiens.
Experiment [3] is described as follows: C. albicans growth with fluconazole, confirmation, fluorescence, retest (AID 2467). It counts as functional, cell-based.
The target of experiment [4] is FAD-linked sulfhydryl oxidase ALR (Homo sapiens, UniProt P55789). In words: inhibitors of human ALR sulfhydryl oxidase, dose response, biochemical, H2O2 detection, luminescence, cherry-pick (AID 493248).
Chain of FAD-linked sulfhydryl oxidase ALR (P55789 whole entry): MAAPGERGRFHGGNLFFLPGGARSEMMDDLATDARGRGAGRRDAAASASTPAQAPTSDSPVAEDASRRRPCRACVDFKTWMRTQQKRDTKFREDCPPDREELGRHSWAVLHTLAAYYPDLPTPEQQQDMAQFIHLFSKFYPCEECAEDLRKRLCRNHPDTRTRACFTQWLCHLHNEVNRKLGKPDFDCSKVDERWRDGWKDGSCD
Experiment [5] deals with T1, Heat shock factor protein 1 (Mus musculus, UniProt P38532).
T1 sequence (P38532 whole entry): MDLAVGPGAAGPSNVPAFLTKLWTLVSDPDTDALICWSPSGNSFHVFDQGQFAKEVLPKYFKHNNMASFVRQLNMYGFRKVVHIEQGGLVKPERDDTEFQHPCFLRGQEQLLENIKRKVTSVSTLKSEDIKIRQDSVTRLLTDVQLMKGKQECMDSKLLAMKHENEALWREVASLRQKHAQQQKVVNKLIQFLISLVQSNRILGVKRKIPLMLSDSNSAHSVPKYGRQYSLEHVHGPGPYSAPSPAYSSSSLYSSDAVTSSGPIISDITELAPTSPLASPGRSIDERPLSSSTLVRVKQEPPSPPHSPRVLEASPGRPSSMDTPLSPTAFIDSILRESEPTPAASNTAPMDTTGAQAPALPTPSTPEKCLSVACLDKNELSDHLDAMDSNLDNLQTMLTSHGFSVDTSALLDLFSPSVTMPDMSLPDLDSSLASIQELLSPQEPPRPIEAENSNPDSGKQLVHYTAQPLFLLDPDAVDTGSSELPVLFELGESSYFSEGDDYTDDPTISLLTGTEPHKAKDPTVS
In words: inhibition of MG132-induced HSE-luciferase signal, confirmation, cell-based, NIH3T3, luminescence, dose retest (AID 2382).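 Also: NIH3T3 fibroblasts with HSF1-driven luciferase reporter stressed by proteasome inhibitor MG132; luminescence from HSF1-driven luciferase expression after 8 hours of MG132 stress.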 It counts as functional.

In another experiment the target is Cytochrome P450 2D6 (Homo sapiens, UniProt P10635).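 Also: CYP2D6 member of a cytochrome P450 panel assay.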
Chain of Cytochrome P450 2D6 (P10635 whole entry): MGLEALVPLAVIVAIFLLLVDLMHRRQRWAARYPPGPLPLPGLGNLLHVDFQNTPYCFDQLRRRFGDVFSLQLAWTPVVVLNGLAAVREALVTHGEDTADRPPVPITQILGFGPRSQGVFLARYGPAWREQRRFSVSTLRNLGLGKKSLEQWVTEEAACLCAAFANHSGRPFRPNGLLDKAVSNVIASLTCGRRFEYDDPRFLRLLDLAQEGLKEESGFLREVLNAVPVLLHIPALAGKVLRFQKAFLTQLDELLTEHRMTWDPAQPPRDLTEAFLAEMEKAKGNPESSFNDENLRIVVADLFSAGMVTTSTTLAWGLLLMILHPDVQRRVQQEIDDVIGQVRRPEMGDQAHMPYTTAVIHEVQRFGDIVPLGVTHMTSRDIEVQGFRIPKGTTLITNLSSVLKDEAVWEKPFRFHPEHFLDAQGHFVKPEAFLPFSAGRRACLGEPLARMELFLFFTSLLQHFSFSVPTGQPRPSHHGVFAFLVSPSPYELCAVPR
Experiment [6] in a line: Luminescence Cell-Based Dose Confirmation HTS to Identify Inhibitors of Platelet Dense Granule Release. [Related pubchem assays: 1663 (Primary HTS), 1678 (Summary of Project)]. It counts as functional.
For experiment [7], the target named is Luciferin 4-monooxygenase (Photinus pyralis, UniProt P08659). In words: firefly luciferase enzyme inhibitors, dose response, biochemical, luminescence (AID 1891).
Chain of Luciferin 4-monooxygenase (P08659 whole entry): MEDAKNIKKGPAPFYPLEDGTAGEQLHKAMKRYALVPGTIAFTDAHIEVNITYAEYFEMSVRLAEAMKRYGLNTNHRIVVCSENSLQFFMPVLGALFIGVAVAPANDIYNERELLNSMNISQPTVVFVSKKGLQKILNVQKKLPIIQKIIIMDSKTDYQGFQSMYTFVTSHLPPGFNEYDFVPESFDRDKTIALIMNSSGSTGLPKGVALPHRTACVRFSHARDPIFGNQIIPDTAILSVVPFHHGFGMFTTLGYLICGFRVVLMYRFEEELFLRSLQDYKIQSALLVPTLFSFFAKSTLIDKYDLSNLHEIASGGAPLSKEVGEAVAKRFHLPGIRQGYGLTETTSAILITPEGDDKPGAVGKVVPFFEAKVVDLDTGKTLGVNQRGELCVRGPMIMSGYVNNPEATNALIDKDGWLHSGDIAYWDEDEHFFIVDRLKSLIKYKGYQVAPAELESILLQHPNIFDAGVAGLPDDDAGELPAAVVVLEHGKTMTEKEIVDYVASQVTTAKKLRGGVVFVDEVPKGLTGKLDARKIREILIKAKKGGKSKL
Another experiment has as its target Cytochrome P450 2C9 (Homo sapiens, UniProt P11712).
Another experiment has as its target T2, Cytochrome P450 1A2 (Homo sapiens, UniProt P05177).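 Also: PubChem cytochrome P450 panel assay, CYP1A2 panel member.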
T2 sequence (P05177 whole entry): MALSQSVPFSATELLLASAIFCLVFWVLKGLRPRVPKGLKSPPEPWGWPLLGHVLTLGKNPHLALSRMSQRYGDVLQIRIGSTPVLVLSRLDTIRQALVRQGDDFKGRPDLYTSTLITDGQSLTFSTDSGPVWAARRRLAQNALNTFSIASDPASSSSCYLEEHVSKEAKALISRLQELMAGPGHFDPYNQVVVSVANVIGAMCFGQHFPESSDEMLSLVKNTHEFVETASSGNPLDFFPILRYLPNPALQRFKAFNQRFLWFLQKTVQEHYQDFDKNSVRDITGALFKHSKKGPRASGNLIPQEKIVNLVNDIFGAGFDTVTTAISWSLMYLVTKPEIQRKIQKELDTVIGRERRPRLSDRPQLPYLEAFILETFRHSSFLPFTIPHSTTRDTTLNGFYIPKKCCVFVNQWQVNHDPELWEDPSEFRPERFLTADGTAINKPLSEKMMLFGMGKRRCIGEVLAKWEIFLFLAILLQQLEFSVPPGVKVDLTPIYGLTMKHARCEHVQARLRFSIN

The subject of another experiment is INS1. In words: beta cell apoptosis inhibitors, cytokine rescue, dose response, luminescence, retest (AID 449756).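 Also: cell death triggered by IL-1 beta plus TNF-alpha plus IFN-gamma mixture; protective hits raise ATP signal compared with cytokine alone wells.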 It counts as functional, cell-based. As to conditions: Rattus norvegicus.
The target of a further experiment is Cytochrome P450 3A4 (Homo sapiens, UniProt P08684).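 Also: CYP3A4 tested as one member of a cytochrome P450 panel screen.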
Chain of Cytochrome P450 3A4 (P08684 whole entry): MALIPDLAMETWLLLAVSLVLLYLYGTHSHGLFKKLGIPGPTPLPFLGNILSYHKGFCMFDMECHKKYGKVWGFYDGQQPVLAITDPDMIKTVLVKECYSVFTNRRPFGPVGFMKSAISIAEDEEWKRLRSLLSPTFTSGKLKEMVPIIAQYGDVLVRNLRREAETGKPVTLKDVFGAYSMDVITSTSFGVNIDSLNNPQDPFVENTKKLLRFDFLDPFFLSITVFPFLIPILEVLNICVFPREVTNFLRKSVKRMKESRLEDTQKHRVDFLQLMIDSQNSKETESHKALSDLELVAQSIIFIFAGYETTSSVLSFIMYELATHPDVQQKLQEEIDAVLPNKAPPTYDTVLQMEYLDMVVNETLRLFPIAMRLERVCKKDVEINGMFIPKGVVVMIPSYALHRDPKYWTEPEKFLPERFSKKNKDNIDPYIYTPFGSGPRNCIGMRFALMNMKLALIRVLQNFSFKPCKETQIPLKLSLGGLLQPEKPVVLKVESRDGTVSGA
For another experiment, the target named is Cytochrome P450 2C19 (Homo sapiens, UniProt P33261). In words: Cytochrome panel assay with activity outcomes. Panel member name: p450-cyp2c19 Compounds with AC50 equal or less than 10 uM are considered active. It counts as functional. The conditions noted are these: read-out: AC50.
Chain of Cytochrome P450 2C19 (P33261 whole entry): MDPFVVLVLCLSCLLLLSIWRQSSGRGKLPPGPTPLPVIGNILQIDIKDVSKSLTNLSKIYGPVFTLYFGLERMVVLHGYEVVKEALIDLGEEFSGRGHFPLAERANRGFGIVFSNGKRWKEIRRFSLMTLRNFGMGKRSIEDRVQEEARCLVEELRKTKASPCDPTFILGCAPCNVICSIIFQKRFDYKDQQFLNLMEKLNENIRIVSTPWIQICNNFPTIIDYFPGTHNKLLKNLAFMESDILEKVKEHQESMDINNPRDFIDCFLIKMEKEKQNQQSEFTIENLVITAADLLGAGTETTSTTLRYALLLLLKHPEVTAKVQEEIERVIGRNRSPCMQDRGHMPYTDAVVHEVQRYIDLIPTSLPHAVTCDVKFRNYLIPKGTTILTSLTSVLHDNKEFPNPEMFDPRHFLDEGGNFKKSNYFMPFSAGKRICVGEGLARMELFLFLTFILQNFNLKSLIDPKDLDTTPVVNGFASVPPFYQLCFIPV
The test system of another experiment is Streptococcus. In words: Group A Streptococcus viability loss, dose response, counter-screen for streptokinase expression inhibitor project, luminescence, BacTiterGlo (AID 1915).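 Also: potency for reduction of bacterial viability or growth.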 It counts as functional, organism-based. In general terms: A counterscreen serves to expose hits that act by an unwanted route or on another target.
A further experiment addresses T3, Streptokinase A (Streptococcus pyogenes serotype M1, UniProt P10520).
T3 sequence (P10520 whole entry): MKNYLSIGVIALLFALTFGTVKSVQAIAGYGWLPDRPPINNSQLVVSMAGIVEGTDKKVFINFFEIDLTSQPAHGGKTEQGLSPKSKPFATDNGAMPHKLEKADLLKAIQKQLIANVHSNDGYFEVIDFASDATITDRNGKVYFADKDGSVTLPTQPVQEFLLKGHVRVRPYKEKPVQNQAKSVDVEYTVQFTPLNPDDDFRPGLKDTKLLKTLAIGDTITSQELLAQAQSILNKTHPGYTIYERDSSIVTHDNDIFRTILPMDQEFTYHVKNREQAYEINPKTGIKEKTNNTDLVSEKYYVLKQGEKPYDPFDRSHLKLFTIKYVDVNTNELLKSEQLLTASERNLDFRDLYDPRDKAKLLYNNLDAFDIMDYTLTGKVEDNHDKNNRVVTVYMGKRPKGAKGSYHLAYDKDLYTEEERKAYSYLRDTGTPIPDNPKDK
In words: S. pyogenes streptokinase expression inhibitors, potency, dose response, plasminogen activation absorbance, OD405 (AID 1914).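 Also: secreted streptokinase activity via plasminogen activation per viability signal from cell pellet.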 It counts as functional, Streptococcus pyogenes M1 GAS.

Experiment [8] deals with Streptococcus sp. 'group A'. In words: growth inhibition of control SK(-) GAS strain, dose response, counter-screen for streptokinase expression inhibitor project, luminescence, kanamycin, BacTiterGlo, confirmation (AID 1900). It counts as functional, organism-based.

Chain of Cytochrome P450 2C9 (P11712 whole entry): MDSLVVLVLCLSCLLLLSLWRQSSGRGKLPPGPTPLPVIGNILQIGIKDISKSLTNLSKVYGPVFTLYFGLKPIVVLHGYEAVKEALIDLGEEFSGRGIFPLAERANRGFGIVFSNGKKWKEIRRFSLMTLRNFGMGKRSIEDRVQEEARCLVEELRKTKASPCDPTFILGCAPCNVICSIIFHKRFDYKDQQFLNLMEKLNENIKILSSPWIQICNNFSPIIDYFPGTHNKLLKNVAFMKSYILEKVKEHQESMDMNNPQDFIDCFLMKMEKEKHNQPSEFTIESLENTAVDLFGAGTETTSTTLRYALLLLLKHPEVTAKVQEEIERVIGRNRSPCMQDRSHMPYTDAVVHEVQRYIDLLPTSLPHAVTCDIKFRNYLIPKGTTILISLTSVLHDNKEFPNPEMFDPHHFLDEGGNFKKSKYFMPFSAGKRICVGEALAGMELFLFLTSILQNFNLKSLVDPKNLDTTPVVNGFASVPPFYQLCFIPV

Take `NCC(c1ccc(Cl)cc1Cl)c1c[nH]c2ccccc12` (stereo not drawn): the results for the EC50 in [1] and in [3] were 26.2 µM (active) and > 38 µM (not active), respectively. Also, the concentration at half-maximal activity (AC50) in [2] was 8.89 µM (active).
On to `Cc1cc(NC(=O)C2CCCN(S(=O)(=O)c3c[nH]cn3)C2)ccc1Br` (stereo not drawn), for which the concentration at half-maximal activity (AC50) in experiment [4] is 69.2 µM (active).
On the same count and under the same terms, under `CCN(CC)c1ccc(C2CC(=O)Nc3cc(OC)c(OC)cc32)cc1` (stereo not drawn) stands 2.47 µM (active).
Regarding `OCCNc1nc2nonc2nc1NCCO`, in experiment [5], the EC50 was > 195 µM (not active).
On the same count and under the same terms, under `CCOC(=O)C1(Cc2ccc(OC)cc2)CCN(C(=O)c2csc(C)n2)CC1` stands > 195 µM (not active).
Take `COc1ccc2[nH]cc(CCNc3ccnc(-c4ccc(C(=O)N(C)C)cc4)n3)c2c1`: the AC50 at Cytochrome P450 2D6 was 25.1 µM (inconclusive).
Same read-out and setting: to `c1csc(CN2CC[C@@]3(CCCNC3)C2)n1` belongs 12.6 µM (inconclusive).
On to `COc1ccc(N2CCN(C(=O)NCc3ccc(OC)c(OC)c3)CC2)cc1`, for which the AC50 in experiment [4] is 5.76 µM (active).
Turning to `Cc1cc(C#N)c2ccccc2n1`, the EC50 in [6] and in [7] was > 112 µM (not active) throughout.
In the case of `Cc1ccc(S(=O)(=O)N2CCCC(C(=O)NCCc3ccc4c(c3)OCO4)C2)cc1` (stereo not drawn), in experiment [5], the EC50 is recorded as > 195 µM (not active).
In the case of `CC(C)c1cc(C(N)=O)c(NC(=O)C2CCC2)s1`, the AC50 in [4] is 9.12 µM (active).
For `CCOC(=O)c1ccccc1NC(=O)c1cccc([N+](=O)[O-])c1`, the values for the EC50 in [1] and in [3] were > 150 µM (inactive) and > 38 µM (not active), respectively.
For the compound `CN(C)c1ccc(-c2nc(Nc3ccncc3)c3ccccc3n2)cc1`, the concentration at half-maximal activity (AC50) at Cytochrome P450 2C9 was 0.794 µM (inconclusive); at Cytochrome P450 2D6 it was 25.1 µM (inconclusive).
Consider `COc1cccc(N2CCN(Cc3cccnc3)CC2)c1`, for which, in [4], the AC50 was 10.3 µM (active).
Take `Cc1ccc(Nc2nc(-c3sc(NC(=O)c4ccc([N+](=O)[O-])cc4)nc3C)cs2)cc1`: the AC50 on Cytochrome P450 1A2 was 2.24 µM (inconclusive); at Cytochrome P450 2D6 it was 0.01 µM (inconclusive).
Take `O=C(Oc1c(CN2CCOCC2)cc(Cl)c2cccnc12)c1ccccc1`: the values for the EC50 in experiment [1] and in [3] were > 150 µM (inactive) and 3.71 µM (active), respectively. Further, in the experiment with INS1, the AC50 was 4.16 µM (active).
With `COc1cc(NC(=O)CSc2nnnn2-c2ccccc2)cc(OC)c1OC`, in [5], the EC50 is on record as > 195 µM (not active).
Consider `CN(C)c1ccc(-c2nc(NC3CCNCC3)c3ccccc3n2)cc1`, for which the AC50 is 31.6 µM (inconclusive) at Cytochrome P450 3A4 and 39.8 µM (inconclusive) on Cytochrome P450 2D6.
With `O=C(NCc1cccnc1)C(=O)NCC(c1ccco1)N1CCN(c2ccc(F)cc2)CC1` (stereo not drawn), in [4], the concentration at half-maximal activity (AC50) is 6.41 µM (active).
Regarding `c1csc(-c2nnsc2-c2nc3ccccc3[nH]2)c1`, the concentration for a half-maximal effect (EC50) in experiment [5] was > 195 µM (not active).
`O=C(N/N=C1/CC/C(=N/NC(=O)c2cccnc2)CC1)c1cccnc1`: the concentration at half-maximal activity (AC50) in experiment [4] is 0.879 µM (active).
For the compound `CC(=O)C1C(c2ccc(Cl)cc2)NC(=O)NC1(O)C(F)(F)F` (stereo not drawn), the 50% effective concentration (EC50) in experiment [6] and in experiment [7] was > 112 µM (not active) throughout.
As for `COc1ccc(Cl)cc1NC(=O)Nc1cc(C)on1`, the EC50 in experiment [6] and in experiment [7] was > 112 µM (not active) each time.
On to `CCc1c(C)c2cc(Cl)c(O)c(CN3CCCCC3)c2oc1=O`, for which the AC50 in [4] was 9.26 µM (active).
The same measure, in the same setting: to `CCC(=O)N1CCc2cc(S(=O)(=O)NCCC(=O)N3CCN(c4cccc(C)c4)C(C)C3)ccc21` (stereo not drawn) belongs 72.4 µM (active); to `O=C(NCC1CC1)Nc1cccs1`, 4.97 µM (active).
`Cc1ccccc1OCC(=O)Nc1ccc2c(c1)C(=O)N(CCC(=O)O)C2=O`: in experiment [5], the EC50 was 32.6 µM (active).
Consider `O=C1OC(NC(=O)c2ccccc2)C(n2cc(CO)nn2)=C1Cl` (stereo not drawn), for which the half-maximal effective concentration (EC50) in [5] was 35.7 µM (active).
Turning to `CCCn1c(N)c(C(=O)COC(=O)c2c(C)noc2C)c(=O)n(C)c1=O`, the EC50 was > 150 µM (inactive) in experiment [1] and > 38 µM (not active) in experiment [3].
On to `Cc1c(C(=O)N2CCCC2)sc(NC(=O)c2cccc(Cl)c2)c1C#N`, for which the half-maximal effective concentration (EC50) in experiment [6] and in experiment [7] was > 112 µM (not active) in each case.
Regarding `COc1ccc(OCC(=O)N2CCN(c3cccc(C(F)(F)F)c3)CC2)cc1`, the EC50 in [5] is on record as > 195 µM (not active).
In the case of `COC(=O)c1c(C(=O)OC)c(-c2ccc(Cl)c(Cl)c2)n2c1CCC2`, the EC50 in [1] was > 160 µM (inactive); in experiment [3], > 38 µM (not active).
Turning to `COC(=O)c1[nH]c2ccccc2c1NC(=O)CN1CCN(C(=O)c2ccco2)CC1`, the EC50 in experiment [6] and in experiment [7] was > 112 µM (not active) in each case.
As for `COc1ccc(C(=O)NC(=S)NCCO)cc1Br`, the EC50 in [5] is reported as > 195 µM (not active).
With `Cc1cc(NC(=O)c2ccccc2Cl)no1`, the EC50 in experiment [6] and in experiment [7] was > 112 µM (not active) in each case. The AC50 at Cytochrome P450 1A2 is 31.6 µM (inconclusive); at Cytochrome P450 2C19 it was 14.1 µM (inconclusive).
On to `CCn1c(S)nnc1CN1C(=O)CSc2ccccc21`, for which the AC50 in [4] was 1.85 µM (active).
With `O=C1CCC(c2ccccc2)=NN1c1nc2ccccc2s1`, the AC50 at Cytochrome P450 2C9 and on Cytochrome P450 2D6 was 3.98 µM (inconclusive) in each case.
In the case of `COc1ccc(CNc2nc(-c3ccc4c(c3)OCO4)nc3ccccc23)c(OC)c1`, the AC50 was 0.501 µM (inconclusive) at Cytochrome P450 2C9 and 12.6 µM (inconclusive) on Cytochrome P450 2D6.
Take `Oc1ccc[n+](CCCCC[n+]2cccc(O)c2)c1`: the figures for the EC50 in experiment [6] and in experiment [7] were 19 µM (active) and > 112 µM (not active), respectively.
`COC(=O)N1CCN(C(=O)Cc2ccc(Cl)c(Cl)c2)[C@H](CN2CCCC2)C1`: the half-maximal activity concentration (AC50) at Cytochrome P450 2D6 was 20 µM (inconclusive).
For `CC(=O)N/N=C/c1cc(C)n(-c2ccc(Br)cc2)c1C`, in experiment [4], the AC50 was 0.414 µM (active).
As for `O=C(c1ccccc1)c1cc2ccc(O)cc2oc1=O`, the EC50 in [6] is < 0.701 µM (active); with Streptococcus it was 18.5 µM (active); at Streptokinase A it was > 150 µM (not active); in experiment [7], 1.14 µM (active); in experiment [8], 8.12 µM (active).
For the compound `CC(=O)Nc1c(I)c(NC(C)=O)c(I)c(C(=O)O)c1I` [DIATRIZOATE MEGLUMINE], the EC50 in [5] is reported as > 195 µM (not active).

For the origin of these results see ChEMBL document CHEMBL1201862, “PubChem BioAssay data set” (2004).
